Data reported in US11730730B2, “Cell-based screening and compounds that modulate GalNAc-transferases” (Carnegie Mellon University, priority 2018, dated 2023).
Read-outs that look alike come from different tables or passages of the source.

Key:
FGF23 [1] = system: FGF23
Experimental: (§1) Immunoblotting. The FLAG-tagged FGF23, Myc-tagged ANGPTL3 with the T225G modification, and untagged ppGalNAc-T3 (cloned into PCDNA 3.0 using BamH1 sites) were transfected into HEK cells using the JetPEI transfection reagent (VWR International, Radnor, Pa., Cat #101-40N) according to the manufacturer's instructions. After 24 h, the medium was replaced with serum-free MEM containing the compound for 6 h. The medium and cells were then collected and, after trichloroacetic acid precipitation of the medium, analyzed by immunoblot using anti-FLAG antibody at 1:1000 or anti-Myc antibody at 1:2000 and then the peroxidase-coupled secondary antibodies. Emission was captured and quantified using a CHEMIDOC™ Touch Imaging System with Image Lab Software (BioRad, SCR_014210). For ppGalNAc-T3 determinations in different cell lines, cells were collected and lysed with 100 μl buffer (10 mM Tris-HCl (pH8.0), 1 mM EDTA (ACROS ORGANICS, Cat #446085000), 1% Triton X-100, 0.1% sodium deoxycholate (Fisher Scientific, Cat #BP349-100), 0.1% SDS (Fisher Scientific, Cat #BP166-500), 140 mM NaCl (Fisher Scientific, Cat #5271-3), 1 mM PMSF (Sigma-Aldrich, Cat #PMSF-RO). Then 15 μl of each lysate was analyzed by immunoblotting using the purchased anti-ppGalNAc-T3 and anti-α-tubulin antibodies.

ANGPTL3 = details: media of HEK cells transfected with Myc-ANGPTL3, 6 h
Experimental: as §1

MDA-MB231 cells [2] = details: MDA-MB231, 5 μM T3Inh-1, 24 or 48 h
Experimental: Proliferation assay. […] After 24, 48 or 72 h, the cells were released using trypsin and counted twice using a hemocytometer for 3 independent trials.

[3] = target: purified lumenal domain of ppGalNAc-T3 (Homo sapiens, UniProt Q14435)
Source text: Tryptophan fluorescence quenching assay. […] The value at the peak of emission at 324 nm was used for the binding curve analysis by Prism.

purified ppGalNAc-T3 = purified ppGalNAc-T3 (Homo sapiens, UniProt Q14435); details: for Vmax: percent of control without inhibitor
Experimental: (§2) A second stage reaction (UDP-GLO™) then converted the accumulated UDP product to ATP and then, via luciferase, to light.
(§3) Secondary screen. Glycosylation assays using recombinant ppGalNAc-T2 and ppGalNAc-T3 were carried out using the UDP-GLO™ Glycosyltransferase assay kit (Promega, Madison, Wis., Cat #V6962), according to the manufacturer's recommendation. The reaction (25 μl) included 2.5 ng/μl purified enzyme, 25 μM UDP-GalNAc (Sigma-Aldrich, Cat #U5252), 12.5 μM EA2 peptide (AnaSpec, Mucin 10, AA153-165, […], Cat #AS-63841), 25 mM Tris-HCl (pH7.5) (Fisher Scientific, Cat #77-86-1), 5 mM MnCl2 (Fisher Scientific, Cat #M87-500), 2.5 mM CaCl2) (Fisher Scientific, Cat #C70-500) and 50 μM compound. The negative control was vehicle only (same reaction mixture with a matched percentage of DMSO instead of compound), whereas background was from the reaction carried out without enzyme and DMSO instead of compound. All reactions were incubated at 37° C. in a water bath for 30 min and then cooled to room temperature. Aliquots (5 μl) were then added to 384-well plate (Thermo Scientific, Waltham, Mass., Cat #164610) to which 5 μl of UDP Detection Reagent was also added. Duplicate measures were made for all reactions. After 1 h at room temperature the luminescent signals were determined using a Tecan Infinite M1000 (Tecan Group Ltd., Männedorf, Switzerland) with integration time set to 1000 msec. The background-subtracted average for each compound was expressed as a percentage of the negative control (taken as 100%). Compounds with ≥50% effect were considered direct modulators.
(§4) Titration assays. For the sensor assay, about 200,000 cells expressing either sensor were seeded into Greiner Bio-One 24-well plates (Sigma-Aldrich, Cat #662160). After 24 h, the cells were incubated for another 6 h in the presence of 0-50 μM compound. To release the cells the medium was replaced with 200 μl 5 mM EDTA/PBS containing 110 nM MG dye. After 5 min at 37° C., fluorescence measurements (20,000 cells/well) were carried out as described above. For the biochemical assay, the assay conditions were identical except for variations in the compound or substrate concentrations as indicated in the figure legends. Data analysis was completed using Prism (Graph Pad Prism Inc., SCR_002798).

purified ppGalNAc-T2 = purified ppGalNAc-T2 (Homo sapiens, UniProt Q10471); details: purified enzyme, in vitro glycosylation
Experimental: as §2, §3, §4

ppGalNAc-T3 = ppGalNAc-T3 (Homo sapiens, UniProt Q14435); details: read-out: apparent IC50 of T3 sensor activation; HEK cells expressing T3 sensor, 6 h, 0-50 μM
Experimental: (§5) Primary screen. HEK cells stably expressing the T2 sensor (containing ANGPTL3 linker sequence with T225G modification) or the T3 sensor (containing FGF23-based linker) were cultured in MEM (Corning, N.Y., Cat #10-010-CV) with 10% fetal bovine serum (FBS, Atlanta Biologicals, Flowery Branch, Ga., Cat #5111150) and 100 IU/ml penicillin-streptomycin (Sigma-Aldrich, Cat #P4333) at 37° C., 5% CO2. Positive controls were cell lines expressing matched sensors with the glycosylation site mutated (Δglycan), specifically T225G/T226G and T178G for the T2 and T3 sensors, respectively. Cells (50,000/well) were seeded in flat bottom 96-well-plates (Corning, N.Y., Cat #3997) and grown for 24 h. Compounds (the diversity set from ChemBridge Corporation (Chicago, Ill.) and the approved oncology drugs set V and the diversity set II from the National Cancer Institute Developmental Therapeutics Program) were then added to achieve a 10 μM final concentration. […] The plates were then transferred to an Accuri™ C6 flow cytometer (BD Biosciences) where GFP and MG fluorescence was measured using 488 nm and 640 nm for 10,000 cells per well. […]
(§6) Titration assays. […] After 5 min at 37° C., fluorescence measurements (20,000 cells/well) were carried out as described above. […]

ppGalNAc-T2 = ppGalNAc-T2 (Homo sapiens, UniProt Q10471); details: HEK cells expressing T2 sensor, 6 h, 0-50 μM
Experimental: as §5, §6

HeLa cells [4] = details: 6 h, 10 μM
purified ppGalNAc-T6 = purified ppGalNAc-T6 (Homo sapiens, UniProt Q8NCL4); details: purified enzyme, in vitro glycosylation
Experimental: as §3, with “Aliquots (5 μl) were then added to 384-well plate (Thermo Scientific, Waltham, Mass., Cat #164610) to which 5 μl of UDP Detection Reagent was also added. Duplicate measures were made for all reactions.” left out, “Compounds with ≥50% effect were considered direct modulators.” left out
as §6

MDA-MB231 cells [5] = details: 24 or 48 h
Experimental: (§7) Cell invasion assay. Breast cancer MDA-MB231 cells were grown in DMEM medium (Corning, N.Y., Cat #10-013-CV) with 10% FBS and 100 IU/ml penicillin-streptomycin at 37° C. and 5% CO2 and then plated at a density of 1.32×104 in 0.3 ml of DMEM medium without FBS into the upper chamber of a BIOBOAT™ insert fitted with a 8.0 μm PET membrane (Corning, N.Y., Cat #354578). For migration assays, the filter was uncoated. […] Medium containing 10% FBS (0.6 ml) was placed into the lower chamber as a chemo attractant. The compound (final concentration of 5 μM) or a matching amount of DMSO was added to both chambers. After 24 h or 48 h the cells were fixed with −20° C. methanol for 15 min and then stained with Trypan blue for 5 min. Cells on the upper surface were removed using cotton swabs. Cells present on the underside of the membrane were photographed using an EVOS FL Cell Imaging System (Invitrogen, CA) and the images were thresholded for presentation and counting using Image J (National Institutes of Health, Bethesda, Md., SCR_003070). The assays involving MCF7 cells were identical except that they were performed 24 h post transfection.

MCF7 cells = details: MCF7, 5 μM T3Inh-1, 24 h, Matrigel-coated filters
Experimental: as §7

HeLa cells [6] = details: 24 h treatment, 10 or 20 μM
Experimental: Lectin staining. […] After staining, the cells were washed twice, lysed with 0.2% Triton X-100 (Fisher Scientific, Cat #BP151-100) for 15 min at 4° C., centrifuged at 14,000×g for 15 min at 4° C., and the supernatants were read in a Greiner Bio-One 96-well glass-bottom plate using a Tecan Infinite M1000 with excitation at 495 nm and emission from 510-550 nm. Three independent trials were carried out and the peak value (520 nm) was used for quantification.

[7] = mice, 25 and 50 mg/kg intraperitoneal, 1 or 2 injections
Experimental: (§8) Animal analysis. Wild-type C57BL/6 six to eight week old mice were purchased from Charles River Laboratories International Inc. (Wilmington, Mass.). Protocols, handling, and care of the mice conformed to protocols approved by the Institutional Animal Care and Use Committee of Carnegie Mellon University (CMU IACUC protocol AS16-005). The compound was dissolved in DMSO at 25 and 50 mg/ml then further diluted with PEG400 (Hampton Research, CA, USA, HR2-603) to create 5 and 10 mg/ml stocks for injection. Control (vehicle only: 20% DMSO, 80% PEG400) and experimental (25 or 50 mg/kg compound) animals received either single or double (separated by 24 h) intraperitoneal injections and, 24 h after the last injection, a cardiac blood draw was carried out. The cleaved/intact FGF23 ratio was determined using ELISA kits from Immunotopics (Carlsbad, Va., USA, Cat #60-6800, Cat #60-6300) with cleaved equaling total minus intact.

FGF23 [8] = details: mice; for ratio of cleaved/intact FGF23 in the blood: 1 or 2 injections, blood 24 h after last
Experimental: as §8

O=C(Nc1ccc(Nc2ccncc2)cc1)c1ccc(Nc2ccnc3ccccc23)cc1 [Compound T3Inh-1]
intact and cleaved FGF23 in cell lysates (FGF23 [1]; cell extracts, 6 h, also with 100 μM chloroquine): no change
half-max of increase in ratio of cleaved/intact FGF23 (FGF23 [1]; media of HEK cells co-expressing FGF23 and ppGalNAc-T3, 6 h): 14 µM
secreted intact FGF23 (FGF23 [1]; media, 6 h, increasing concentrations): dose-dependent loss
secreted intact ANGPTL3 (ANGPTL3): remained high at all concentrations
effect on cell proliferation (MDA-MB231 cells [2]): no discernable effect
Kd ([3]; read-out: apparent Kd of direct binding, quenching at 324 nm): 17 µM
affinity of binding to GalNAc-T3 ([3]; stated in words): low micromolar
HEK cell proliferation (HEK cells; 0-50 μM, 24, 48, 72 h, cell counting): did not affect
toxicity (HEK cells; HEK cells, continuous exposure 24, 48, 72 h): no toxicity
inhibition of ppGalNAc-T3 in the secondary screen (purified ppGalNAc-T3; 50 μM compound, versus ppGalNAc-T2): strong and selective inhibitor
IC50 (purified ppGalNAc-T3; read-out: IC50 of inhibition of ppGalNAc-T3, purified enzyme, in vitro glycosylation): 7 µM
Ki (purified ppGalNAc-T3; substrate varied: Peptide (EA2)): 9.9 µM
Vmax (purified ppGalNAc-T3; substrate varied: Peptide (EA2), 7.5 μM T3Inh-1): 82%
Vmax (purified ppGalNAc-T3; substrate varied: Peptide (EA2), 15 μM T3Inh-1): 36%
Ki (purified ppGalNAc-T3; substrate varied: UDP-GalNAc): 2.9 µM
Vmax (purified ppGalNAc-T3; substrate varied: UDP-GalNAc, 7.5 μM T3Inh-1): 71%
Vmax (purified ppGalNAc-T3; substrate varied: UDP-GalNAc, 15 μM T3Inh-1): 56%
inhibition of ppGalNAc-T2 (purified ppGalNAc-T2): undetectable
IC50 (ppGalNAc-T3): 12 µM
activity towards the T2 sensor (ppGalNAc-T2): little or no activity
localization or expression level of ppGalNAc-T3, ppGalNAc-T2 or any other Golgi marker tested (HeLa cells [4]): no change
activity against ppGalNAc-T6 (purified ppGalNAc-T6): lacked activity
inhibition of invasion (MDA-MB231 cells [5]; 5 μM T3Inh-1, Matrigel-coated filters): 98%
inhibition of migration (MDA-MB231 cells [5]; 5 μM T3Inh-1, uncoated filters): > 80%
increase of invasion caused by ppGalNAc-T3 transfection (MCF7 cells): strongly blocked
staining intensity by lectin Concanavalin A (ConA) (HeLa cells [6]): did not affect
staining intensity by lectin Sambucus Nigra (SNA) (HeLa cells [6]): did not affect
staining intensity by lectin Vicia Villosa (VVA) (HeLa cells [6]): did not affect
staining intensity by lectin Wheat germ agglutinin (WGA) (HeLa cells [6]): did not affect
effects on animal health [7]: no apparent ill effects
ratio of cleaved/intact FGF23 in the blood (FGF23 [8]; 25 mg/kg intraperitoneal): robust and statistically significant increase
ratio of cleaved/intact FGF23 in the blood (FGF23 [8]; 50 mg/kg intraperitoneal): robust and statistically significant increase
increase of level of proteolyzed C-terminal FGF23 fragment (FGF23 [8]; intraperitoneal injection): 8 fold
